Results published in patent publication US20110263693A1, “CELASTROL, GEDUNIN, AND DERIVATIVES THEREOF AS HSP90 INHIBITORS” (DANA-FARBER CANCER INSTITUTE, INC., priority 2006, published 2011).

Experiments:
[1] = test system: AR; experiment: Western blot of AR protein level; format: cell-based; details: for concentration at and above which AR levels are decreased / concentration giving almost complete ablation of AR levels: LNCaP cells, 24 hr
Experimental: We first asked whether celastrol and gedunin decrease the levels of AR itself. […] Celastrol decreased AR levels in LNCaP cells at 0.5 μM and above, while gedunin decreases their levels at 10 μM and above. […] These concentration-dependent effects on AR are consistent with the observed inhibitory effects on AR-mediated signaling.

[2] = test system: HSP90; experiment: HSP90 conformational change assay (bis-ANS); format: binding; details: purified HSP90 200 nM, bis-ANS 50 μM
Experimental: The final volume in each well was 100 μL. The plate was covered with foil and mixed for 30 s on a plate shaker before incubation for 60 min. at 37° C. Relative fluorescence units were measured using a SpectraMx Gemini XS spectrofluorometer (Molecular Devices Corporation, Sunnyvale, Calif.) at an excitation wavelength for bis-ANS of 393 nm and an emission wavelength of 484 nm. The data were acquired using the SOFTmaxPRO software (Molecular Devices Corporation, Sunnyvale, Calif.).

[3] = test system: androgen signaling signature in LNCaP cells; experiment: Synergy with HSP90 inhibitors on the androgen signaling signature (isobologram); format: cell-based; details: 24 hr, isobologram analysis
Description: (§1) If celastrol and gedunin act on HSP90 function via a distinct mechanism from HSP90 ATP-binding site inhibition (Bagatell et al., 2005), they might act synergistically with existing HSP90 inhibitors. We therefore tested the combinatorial effects of these compounds with HSP90 inhibitors on HSP90 client signaling and viability. […] Celastrol and gedunin therefore act synergistically with existing modes of HSP90 ATP-binding site inhibition to inhibit HSP90 client signaling and viability in a cellular context, consistent with their inhibition of HSP90 via a distinct mechanism.
(§2) Adherent cell growth was measured by luminescent assay of ATP level (CellTiterGlo, Promega). LNCaP cells were grown in charcoal-stripped media for 2 days prior to simultaneous treatment with 1 nM R1881 and the relevant compound. Synergy was assessed by analyzing the IC50 of one drug over a range of concentrations of the other drug and vice versa. The resulting concentration pairs were visualized by isobologram (Gessner, 1995). Anchorage independence was measured by soft agar assay (Hahn et al., 1999). Compounds were added to both agar layers. Colonies were scored after 3 weeks.

[4] = test system: LNCaP cells; experiment: Synergy with HSP90 inhibitors on cell growth by ATP level (isobologram); format: cell-based; details: 24 hr, low concentrations
Description: as §1, §2

[5] = test system: LNCaP cells; experiment: Soft agar assay of anchorage-independent growth; format: cell-based; details: for colony size in soft agar: LNCaP; for anchorage-independent growth of LNCaP cells (colony number): soft agar, celastrol 0.625 μM, compared with bicalutamide (casodex)
Experimental: To investigate the cellular consequences of celastrol- and gedunin-mediated inhibition, we assessed whether celastrol and gedunin activity results in decreased cell growth, consistent with AR inhibition. […] Second, the compounds' effects on anchorage-independent growth of LNCaP cells was assayed in soft agar (FIG. 6D).
as §2

[6] = test system: androgen-responsive gene expression in LNCaP cells; experiment: Genome-wide gene expression profiling with hierarchical clustering of androgen-responsive genes; format: cell-based; details: androgen-stimulated LNCaP, celastrol 1.25 μM, gedunin 20 μM, 24 hr
Experimental: We next asked whether celastrol and gedunin inhibit the broader program of androgen signaling beyond the GE-HTS signature. To address this question, we compared the genome-wide gene expression profiles of androgen-stimulated LNCaP cells treated with celastrol (1.25 μM) and gedunin (20 μM) for 24 hr to those of androgen-stimulated and androgen-deprived cells.
The mRNA expression profiles of celastrol- and gedunin-treated cells were determined by Affymetrix U133A microarray analysis in triplicate. RNA was isolated by Trizol extraction from LNCaP cells treated with vehicle, 1.25 μM celastrol, or 20 μM gedunin (1) for 24 hr in RPMI, 10% charcoal-stripped FBS, and 1 nM R1881 or vehicle, following androgen deprivation in charcoal-stripped media for 2 days, and (2) for 6 hr in RPMI with 10% FBS. IVT, labeling, hybridization, and washing were carried out on the Affymetrix High-Throughput Array platform using HT_HG-U133A preproduction arrays (early access version; part number 520276) for all but the 24 hr gedunin samples. U133A version 2 arrays were used for the 24 hr gedunin samples for technical reasons. Raw data were processed by RMA. For hierarchical clustering, a 169 probe set of androgen-regulated genes was defined and used to perform average linkage clustering (see below). […]

[7] = test system: FLT3; experiment: Western blot of HSP90 client FLT3 level; format: cell-based, human; details: for protein level of FLT3: 24 hr, several cell lines, concentration-dependent
Experimental: To more broadly establish the effects of celastrol and gedunin on the HSP90 pathway, we tested whether these compounds decrease the protein levels of other HSP90 clients.
Celastrol (Calbiochem) and gedunin (Gaia Chemicals) were solubilized in DMSO. LNCaP.FGC cells (ATCC) were grown in RPMI 1640 (ATCC) with 10% FBS. Ba/F3 cells stably expressing human FLT3, EGFR, and BCR-ABL1 were grown in RPMI 1640, 10% FBS, and 2 ng/ml IL-3. SKBr3 cells were grown in a 1:1 DME:F12 plus 10% FBS.

SMILES	concentration at and above which AR levels are decreased [1]	concentration giving almost complete ablation of AR levels [1]	inhibition of HSP90 conformational changes induced by bis-ANS [2]	combined effect with geldanamycin and 17-AAG on the androgen signaling signature [3]	combined effect with geldanamycin and 17-AAG on cell growth (ATP level) [4]	colony size in soft agar [5]	anchorage-independent growth of LNCaP cells (colony number) [5]	broader program of androgen signaling (genome-wide expression, hierarchical clustering) [6]	protein level of FLT3 [7]	AR protein by immunoblotting ([1]; gedunin-treated LNCaP cells)	sensitivity of FLT3 internal tandem duplication (ITD) mutant to inhibition ([7]; Ba/F3 cells, relative to non-mutant)
CC1=C(O)C(=O)C=C2C1=CC=C1[C@@]2(C)CC[C@@]2(C)[C@@H]3C[C@](C)(C(=O)O)CC[C@]3(C)CC[C@]12C [celastrol]	≥ 0.5 µM	1 µM	binds purified HSP90 in vitro	mild synergy	synergistically inhibit cell growth	inhibited colony size	inhibited anchorage-independent growth to a similar degree as the AR competitive antagonist bicalutamide (casodex)	invoked a broader gene expression program similar to that induced by androgen deprivation	lowered the protein levels		
CC(=O)O[C@@H]1C[C@H]2C(C)(C)C(=O)C=C[C@]2(C)[C@H]2CC[C@@]3(C)[C@H](c4ccoc4)OC(=O)[C@H]4O[C@]43[C@@]21C [gedunin]	≥ 10 µM	20 µM	the effect is not well seen	mild synergy	synergistically inhibit cell growth	inhibited colony size	inhibited anchorage-independent growth to a similar degree as the AR competitive antagonist bicalutamide (casodex)	invoked a broader gene expression program similar to that induced by androgen deprivation	lowered the protein levels	nearly entirely eliminated	increased sensitivity
